Source: the NIST ThermoML archive (doi:10.1021/acs.jced.8b00201)
± gives the expanded uncertainty stated by the source.

Assay: xn = mol fraction of the nth substance listed
Settings: 100 kPa, Liquid; for viscosity: Concentric cylinders viscometry; for mass density: Vibrating tube method

O=C1CCCCC1 [cyclohexanone] + CCCCCCO
Settings	mass density [kg/m3]	viscosity [mPa·s]
293.15 K, x1 = 0.0818	827.6 ± 20	4.66 ± 0.23
293.15 K, x1 = 0.1594	836.2 ± 20	4.06 ± 0.2
293.15 K, x1 = 0.2401	845.5 ± 20	3.55 ± 0.18
293.15 K, x1 = 0.3467	858.2 ± 20	2.97 ± 0.15
293.15 K, x1 = 0.4439	870.2 ± 20	2.55 ± 0.13
293.15 K, x1 = 0.564	885.7 ± 20	2.18 ± 0.11
293.15 K, x1 = 0.6501	897.3 ± 20	2.02 ± 0.1
293.15 K, x1 = 0.7381	909.5 ± 20	1.97 ± 0.1
293.15 K, x1 = 0.8512	925.9 ± 20	2 ± 0.1
293.15 K, x1 = 0.9426	939.8 ± 20	2.13 ± 0.11
293.15 K, x1 = 1	948.8 ± 20	2.3 ± 0.12
298.15 K, x1 = 0.0818	823.8 ± 20	4.03 ± 0.2
298.15 K, x1 = 0.1594	832.2 ± 20	3.54 ± 0.18
298.15 K, x1 = 0.2401	841.3 ± 20	3.12 ± 0.16
298.15 K, x1 = 0.3467	853.7 ± 20	2.63 ± 0.13
298.15 K, x1 = 0.4439	865.5 ± 20	2.3 ± 0.12
298.15 K, x1 = 0.564	880.7 ± 20	1.98 ± 0.1
298.15 K, x1 = 0.6501	892.1 ± 20	1.86 ± 0.09
298.15 K, x1 = 0.7381	904.2 ± 20	1.81 ± 0.09
298.15 K, x1 = 0.8512	920.5 ± 20	1.84 ± 0.09
298.15 K, x1 = 0.9426	934.7 ± 20	1.95 ± 0.1
298.15 K, x1 = 1	943.1 ± 20	2.09 ± 0.11
303.15 K, x1 = 0.0818	820 ± 20	3.47 ± 0.17
303.15 K, x1 = 0.1594	828.3 ± 20	3.07 ± 0.15
303.15 K, x1 = 0.2401	837.2 ± 20	2.72 ± 0.14
303.15 K, x1 = 0.3467	849.5 ± 20	2.33 ± 0.12
303.15 K, x1 = 0.4439	861.1 ± 20	2.05 ± 0.1
303.15 K, x1 = 0.564	876.2 ± 20	1.8 ± 0.09
303.15 K, x1 = 0.6501	887.5 ± 20	1.71 ± 0.09
303.15 K, x1 = 0.7381	899.5 ± 20	1.67 ± 0.08
303.15 K, x1 = 0.8512	915.6 ± 20	1.7 ± 0.09
303.15 K, x1 = 0.9426	929.8 ± 20	1.79 ± 0.09
303.15 K, x1 = 1	938.2 ± 20	1.91 ± 0.1
308.15 K, x1 = 0.0818	816.3 ± 20	3.04 ± 0.15
308.15 K, x1 = 0.1594	824.4 ± 20	2.71 ± 0.14
308.15 K, x1 = 0.2401	833.2 ± 20	2.41 ± 0.12
308.15 K, x1 = 0.3467	845.3 ± 20	2.09 ± 0.11
308.15 K, x1 = 0.4439	856.8 ± 20	1.87 ± 0.09
308.15 K, x1 = 0.564	871.8 ± 20	1.67 ± 0.08
308.15 K, x1 = 0.6501	883 ± 20	1.59 ± 0.08
308.15 K, x1 = 0.7381	894.9 ± 20	1.55 ± 0.08
308.15 K, x1 = 0.8512	911 ± 20	1.58 ± 0.08
308.15 K, x1 = 0.9426	925.1 ± 20	1.64 ± 0.08
308.15 K, x1 = 1	933.5 ± 20	1.75 ± 0.09
313.15 K, x1 = 0.0818	812.4 ± 20	2.66 ± 0.13
313.15 K, x1 = 0.1594	820.5 ± 20	2.39 ± 0.12
313.15 K, x1 = 0.2401	829.2 ± 20	2.14 ± 0.11
313.15 K, x1 = 0.3467	841.1 ± 20	1.86 ± 0.09
313.15 K, x1 = 0.4439	852.5 ± 20	1.68 ± 0.08
313.15 K, x1 = 0.564	867.3 ± 20	1.51 ± 0.08
313.15 K, x1 = 0.6501	878.5 ± 20	1.45 ± 0.07
313.15 K, x1 = 0.7381	890.3 ± 20	1.42 ± 0.07
313.15 K, x1 = 0.8512	906.3 ± 20	1.45 ± 0.07
313.15 K, x1 = 0.9426	920.4 ± 20	1.51 ± 0.08
313.15 K, x1 = 1	928.8 ± 20	1.6 ± 0.08
318.15 K, x1 = 0.0818	808.7 ± 20	2.33 ± 0.12
318.15 K, x1 = 0.1594	816.7 ± 20	2.1 ± 0.1
318.15 K, x1 = 0.2401	825.3 ± 20	1.9 ± 0.1
318.15 K, x1 = 0.3467	837.1 ± 20	1.68 ± 0.08
318.15 K, x1 = 0.4439	848.4 ± 20	1.52 ± 0.08
318.15 K, x1 = 0.564	863.1 ± 20	1.38 ± 0.07
318.15 K, x1 = 0.6501	874.2 ± 20	1.33 ± 0.07
318.15 K, x1 = 0.7381	886 ± 20	1.31 ± 0.07
318.15 K, x1 = 0.8512	901.9 ± 20	1.33 ± 0.07
318.15 K, x1 = 0.9426	916 ± 20	1.39 ± 0.07
318.15 K, x1 = 1	924.4 ± 20	1.46 ± 0.07
323.15 K, x1 = 0.0818	804.9 ± 20	2.05 ± 0.1
323.15 K, x1 = 0.1594	812.8 ± 20	1.86 ± 0.09
323.15 K, x1 = 0.2401	821.4 ± 20	1.7 ± 0.09
323.15 K, x1 = 0.3467	833.2 ± 20	1.51 ± 0.08
323.15 K, x1 = 0.4439	844.5 ± 20	1.39 ± 0.07
323.15 K, x1 = 0.564	859.2 ± 20	1.28 ± 0.06
323.15 K, x1 = 0.6501	870.3 ± 20	1.23 ± 0.06
323.15 K, x1 = 0.7381	882.2 ± 20	1.22 ± 0.06
323.15 K, x1 = 0.8512	898.1 ± 20	1.23 ± 0.06
323.15 K, x1 = 0.9426	912.2 ± 20	1.27 ± 0.06
323.15 K, x1 = 1	920.7 ± 20	1.34 ± 0.07
